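Protocol summary: plate cells (96-well), add compound at 5 concentrations, incubate 48 h, interpolate endpoints linearly. TGI: total growth inhibition.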
Experiments:
Test in all cases: inhibition of tumour cell growth, NCI panel, 48 h
[1] = test system: A549 NSCLC
[2] = test system: HCT-116 colon
[3] = test system: HT29 colon
[4] = test system: K-562 leukemia
[5] = test system: MDA-MB-435
[6] = test system: NCI/ADR-RES ovarian
[7] = test system: OVCAR-4 ovarian
[8] = test system: RPMI-8226 leukemia
[9] = test system: SF-539 CNS
[10] = test system: SK-OV-3 ovarian
[11] = test system: UACC-62 melanoma

For CC(=O)c1ccccc1NCC(=O)Nn1cnc2ccc(S(=O)(=O)Nc3ccccc3C(C)=O)cc2c1=O, the TGI [1] was greater than 100 µM, the TGI [2] was greater than 100 µM and the TGI [3] was greater than 100 µM. For the same compound, the TGI [4] was greater than 100 µM, the TGI [5] was greater than 100 µM and the TGI [6] was greater than 100 µM. For the same compound, the TGI [7] was greater than 100 µM, the TGI [8] was greater than 100 µM and the TGI [9] was greater than 100 µM. It also gave a TGI [10] greater than 100 µM and a TGI [11] greater than 100 µM.
With COc1ccc(/C=C2\CCS(=O)(=O)c3ccccc3C2=O)cc1OC the TGI [1] was greater than 100 µM, the TGI [2] was greater than 100 µM and the TGI [3] was greater than 100 µM. For the same compound, the TGI [4] was greater than 100 µM, the TGI [5] was greater than 100 µM and the TGI [6] was 81.6 µM. For the same compound, the TGI [7] was 71.5 µM, the TGI [8] was greater than 100 µM and the TGI [9] was greater than 100 µM. It also gave a TGI [10] greater than 100 µM and a TGI [11] of 76.6 µM.
Work on O=C(c1ccccc1)n1cc(-c2ccccc2)c2c(=O)[nH]cnc21 yielded a TGI [1] greater than 100 µM, a TGI [2] greater than 100 µM and a TGI [3] greater than 100 µM. It also gave a TGI [5] greater than 100 µM, a TGI [6] greater than 100 µM and a TGI [7] greater than 100 µM. The TGI [8] was greater than 100 µM, the TGI [9] was greater than 100 µM and the TGI [10] was greater than 100 µM. It also gave a TGI [11] greater than 100 µM.
In the case of CCCCCc1nnc(NS(=O)(=O)c2ccc(NC(=O)OCC(C)C)cc2)s1, the TGI [1] is reported as greater than 100 µM, the TGI [2] is reported as 53.7 µM and the TGI [3] is reported as 46.1 µM. It also gave a TGI [4] of 60.9 µM, a TGI [5] greater than 100 µM and a TGI [6] greater than 100 µM. It also gave a TGI [7] of 56.5 µM, a TGI [8] of 41.4 µM and a TGI [9] of 64.2 µM. The TGI [10] was greater than 100 µM and the TGI [11] was greater than 100 µM.
Cc1ccc(NC(=O)C(Cc2c[nH]c3ccccc23)NC(=O)Oc2ccccc2)cc1C (configuration not stated) gave a TGI [1] greater than 100 µM, a TGI [2] greater than 100 µM and a TGI [3] greater than 100 µM. For the same compound, the TGI [4] was greater than 100 µM, the TGI [5] was greater than 100 µM and the TGI [6] was greater than 100 µM. It also gave a TGI [7] greater than 100 µM, a TGI [8] of 80.9 µM and a TGI [9] greater than 100 µM. It also gave a TGI [10] greater than 100 µM and a TGI [11] greater than 100 µM.
Compound C=C1c2nc3ccccc3n2C=C(c2ccc(C)cc2)N1c1ccc(C)cc1 has a TGI [1] greater than 100 µM, a TGI [2] greater than 100 µM and a TGI [3] greater than 100 µM. It also gave a TGI [4] greater than 100 µM, a TGI [5] greater than 78.2 µM and a TGI [6] greater than 78.9 µM. The TGI [7] was greater than 100 µM, the TGI [8] was greater than 89.8 µM and the TGI [9] was greater than 100 µM. It also gave a TGI [10] greater than 100 µM and a TGI [11] greater than 100 µM.
C=CCc1cc(-c2cc(CC=C)c(O)c(CN(CC)CC)c2)cc(CN(CC)CC)c1O was tested, and the TGI [1] was greater than 100 µM, the TGI [2] was 55.9 µM and the TGI [3] was 40.9 µM. The TGI [4] was greater than 100 µM, the TGI [5] was greater than 92.7 µM and the TGI [6] was greater than 100 µM. The TGI [7] was greater than 100 µM, the TGI [8] was greater than 88.1 µM and the TGI [9] was 54.3 µM. The TGI [10] was greater than 100 µM and the TGI [11] was 48.5 µM.
CCO[C@@]1(COCc2ccccc2)OC(=O)C[C@@H]1N1C(=O)OC[C@@H]1c1ccccc1 showed a TGI [1] greater than 100 µM, a TGI [2] greater than 100 µM and a TGI [3] greater than 100 µM. For the same compound, the TGI [4] was greater than 100 µM, the TGI [5] was greater than 100 µM and the TGI [6] was greater than 100 µM. For the same compound, the TGI [7] was greater than 100 µM, the TGI [8] was greater than 100 µM and the TGI [9] was greater than 100 µM. For the same compound, the TGI [10] was greater than 100 µM and the TGI [11] was greater than 100 µM.
Compound COc1ccc(NC(=O)CC(=O)n2nc(C)c(N=Nc3cccc(C)c3)c2C)cc1 has a TGI [1] greater than 100 µM, a TGI [2] greater than 100 µM and a TGI [3] greater than 100 µM. For the same compound, the TGI [5] was greater than 100 µM, the TGI [6] was greater than 100 µM and the TGI [7] was greater than 100 µM. For the same compound, the TGI [8] was greater than 100 µM, the TGI [9] was greater than 100 µM and the TGI [10] was 78.7 µM. It also gave a TGI [11] greater than 100 µM.

From PubChem BioAssay (NCI)
